The text below walks through data of PMC3929664, “A Panel of Diverse Assays to Interrogate the Interaction between Glucokinase and Glucokinase Regulatory Protein, Two Vital Proteins in Human Disease” (PLoS ONE, 2014).

Structures can show the parent of a compound that is named as a salt.

What is called IC50 is the concentration needed to halve the response being measured. For orientation: EC80 means the concentration needed for an effect of 80%. What is called EC50 is the concentration needed to bring the measured effect to its halfway point.

The test concerns the target T1, GCK-GKRP interaction (recombinant human GST-GCK and FLAG-GKRP) (Homo sapiens, UniProt P35557+Q14397).
T1 construct: made in house
T1 sequence (P35557 1-465): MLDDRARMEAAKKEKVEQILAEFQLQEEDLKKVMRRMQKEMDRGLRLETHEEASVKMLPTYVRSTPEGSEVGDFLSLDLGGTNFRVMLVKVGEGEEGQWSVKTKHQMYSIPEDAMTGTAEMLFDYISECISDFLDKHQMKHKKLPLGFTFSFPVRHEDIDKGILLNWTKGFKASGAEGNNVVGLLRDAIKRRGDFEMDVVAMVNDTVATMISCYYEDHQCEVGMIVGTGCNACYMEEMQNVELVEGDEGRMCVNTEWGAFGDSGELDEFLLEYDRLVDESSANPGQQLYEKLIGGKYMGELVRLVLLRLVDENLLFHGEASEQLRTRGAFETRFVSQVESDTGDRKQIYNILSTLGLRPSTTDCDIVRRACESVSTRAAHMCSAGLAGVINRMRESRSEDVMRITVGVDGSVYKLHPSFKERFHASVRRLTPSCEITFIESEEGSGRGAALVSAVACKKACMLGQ
T1 sequence (Q14397 1-625): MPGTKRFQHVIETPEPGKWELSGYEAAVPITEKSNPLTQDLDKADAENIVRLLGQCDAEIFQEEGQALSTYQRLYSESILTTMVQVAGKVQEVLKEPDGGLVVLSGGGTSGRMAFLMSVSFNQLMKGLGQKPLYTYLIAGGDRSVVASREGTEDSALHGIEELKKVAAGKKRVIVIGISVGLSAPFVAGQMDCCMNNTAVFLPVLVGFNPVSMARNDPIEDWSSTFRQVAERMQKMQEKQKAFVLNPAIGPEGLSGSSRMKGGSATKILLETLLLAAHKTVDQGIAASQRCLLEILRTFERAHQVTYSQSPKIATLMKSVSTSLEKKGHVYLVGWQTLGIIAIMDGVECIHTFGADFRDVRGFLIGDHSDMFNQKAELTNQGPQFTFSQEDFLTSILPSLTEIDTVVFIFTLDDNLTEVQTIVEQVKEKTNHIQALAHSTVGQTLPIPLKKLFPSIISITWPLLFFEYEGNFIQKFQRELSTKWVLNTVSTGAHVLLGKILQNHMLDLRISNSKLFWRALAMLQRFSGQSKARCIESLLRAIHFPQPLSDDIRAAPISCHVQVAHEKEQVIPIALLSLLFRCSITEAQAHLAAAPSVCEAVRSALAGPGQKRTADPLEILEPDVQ
Description: HTRF assay of the GCK-GKRP protein-protein interaction. The note with it: 5 nM GCK, 5 nM GKRP. The format is binding. How it is done: Homogeneous time-resolved fluorescence (HTRF) technology (Cisbio Bioassays, Bedford, MA, USA) was utilized for antibody-based FRET measurement of the GCK-GKRP protein-protein interaction. Recombinant human GST-GCK and FLAG-GKRP were mixed in an HTRF assay buffer containing 2 mM MgCl2, 25 mM KCl, 25 mM HEPES, 1 mM DTT, 0.1% Tween-20, and 0.025% BSA (all buffer components Sigma-Aldrich). The pH was adjusted to 7.1 by drop-wise addition of 10 N NaOH. […] For assays in 1536-well plate format, the two reaction mixes were dispensed using an Aurora Discovery BioRAPTR Flying Reagent Dispenser (BioRAPTR; Beckman Coulter, Inc., Brea, CA, USA) (3 µl/well for protein-containing buffer; 1 µl/well for detection antibodies) into white 1536-well solid-bottom medium binding plates (Greiner Bio-One, Monroe, NC, USA). […] For the LOPAC^1280 library screen, column 1 was all components with DMSO (maximum signal) and column 3 was no GKRP with DMSO (minimum signal). These two control columns were used for data normalization. The final HTS protocol is in Table S1, and the data have been deposited in PubChem (AID 743207).
S6P, F1P, and glucose were dissolved in water; GKAs were dissolved in DMSO.
The assay was validated using a range (0–150 nM) of GCK and GKRP concentrations at manufacturer-recommended detection antibody concentrations ( Figure 2A ). Fluorescence was measured immediately upon mixing, and every 30 minutes thereafter for a total of 240 minutes. The plate was covered and incubated at room temperature throughout the course of the experiment.
The assay was miniaturized to 1536-well plate format and, concurrently, specificity of detection was validated by using known modulators of the GCK-GKRP interaction.
The EC80 value represents a compromise between the desire for large enough signal enhancement and the need to maintain a binding level that is not too saturated so that it can be outcompeted by compounds of interest. Additionally, this approach enables detection of specific competitors of S6P, which would likely be acting on GKRP as desired, and not on GCK. […] Both glucose and GKAs interfere with the binding of GKRP to GCK and decrease GKRP inhibition, [44], [45], while F1P binds to GKRP and is competitive with respect to S6P [46].
Background: In TR-FRET formats the signal depends on donor and acceptor labels being close together.

For `O=C(O)C1=CC(=C(c2ccc(O)c(C(=O)O)c2)c2ccc(O)c(C(=O)O)c2)C=CC1=O` [ATA, aurintricarboxylic acid], where the note is “2 µM S6P”, the LOPAC1280 screen outcome was “inhibitors of the GCK-GKRP interaction”.

For the compound `O=C(COP(=O)(O)O)[C@@H](O)[C@H](O)[C@H](O)CO` [F1P, fructose 1-phosphate], the IC50 (2 µM S6P, mean ± SD, read-out: IC50 (inhibition of GCK-GKRP interaction, HTRF signal)) stood at 70 ± 5.4 µM.

Turning to `O=P(O)(O)OC[C@@H](O)[C@@H](O)[C@H](O)[C@@H](O)CO` [S6P, sorbitol 6-phosphate], the concentration for an effect of 80% (EC80) turned out to be 2 µM. For the same compound, for the setting “1536-well, mean ± SD, read-out: EC50 (enhancement of HTRF signal)”, the EC50 is 0.4 ± 0.08 µM.

`Cc1ccc(C(=O)Nc2ccc(S(=O)(=O)O)c3cc(S(=O)(=O)O)cc(S(=O)(=O)O)c23)cc1NC(=O)c1cccc(NC(=O)Nc2cccc(C(=O)Nc3cc(C(=O)Nc4ccc(S(=O)(=O)O)c5cc(S(=O)(=O)O)cc(S(=O)(=O)O)c45)ccc3C)c2)c1` [suramin sodium salt]: under “2 µM S6P”, the LOPAC1280 screen outcome is given as “inhibitors of the GCK-GKRP interaction”.
